The values below come from US11903911B1, “Method of treating obesity by reversal of Na/K-Atpase inhibition” (Marshall University Research Corporation, priority 2019, dated 2024).

“Also recorded” adds a separate entry of the source.

One assay concerns transporter activities. Nature of the assay: L-NAME dose finding on intestinal transporter activities. It is filed as in vivo. Conditions: 10 or 25 mg/kg per day tested in mice and rats. An excerpt: (§1) Animal models and treatment. Zucker rats (Strain code: 185 (Obese), 186 (Lean); 18 wks) obtained from Charles River Laboratories International, Inc. were used as a genetic model of obesity, and C57BL/6 mice (B6) (The Jackson Laboratory) and Sprague Dawley rats (Strain code: 400; Charles River Laboratories International, Inc.) were used as a diet-induced model of obesity. B6 mice were fed with either a low-fat diet (LFD) (10% calories from fat; Cat. No: 58124, LabDiet, USA) or high-fat diet (HFD) (60% calories from fat; Cat. No: 58126, LabDiet, USA) starting at 4 weeks of age until they reached 20 weeks of age. Sprague Dawley rats were fed the above-mentioned diets from the age of 12 weeks for 6 weeks to induce obesity. To inhibit constitutive nitric oxide production in both mice and rats, the animals were first treated with either a 10 or 25 mg/kg per day dosage of used N^G-nitro-L-arginine methyl ester (L-NAME). Studies determined that 10 mg dose of L-NAME was the lowest dose to consistently affect transporter activities and was therefore used in all subsequent experiments. For the diet-induced mice obesity model, LFD and HFD fed B6 mice were treated with this dose from the age of 20 weeks, and Sprague Dawley rats were treated from the age of 17 wks for 1 week. All the experimental animals were handled and euthanized according to Marshall University IACUC regulations.

In the next assay the test system is NHE3. Nature of the assay: Na/H exchange (NHE3) uptake in BBMV of L-NAME-treated obese rats. It is filed as in vivo, rat. The note with it: obese rats treated with L-NAME; FIG. 23.
Excerpt: as §1, with “[…] Na/H exchange uptake was measured in BBMV by rapid filtration technique as previously described. […] The results” for “For the diet-induced mice obesity model, LFD and HFD fed B6 mice”, “expressed as Na/H exchange in picomoles per milligram protein at 60 sec.” for “treated with this dose from the age of 20 weeks, and Sprague Dawley rats were treated from the age of 17 wks for 1 week. All the experimental animals were handled and euthanized according to Marshall University IACUC regulations.”

For assay [1], the system named is Cl:HCO3 exchange (DRA/PAT1). The assay can be described thus: Cl/HCO3 exchange uptake in BBMV of L-NAME-treated obese rats. It is filed as in vivo, rat. The note with it: obese rats (OZR) treated for at least one week with L-NAME; FIG. 22.
Excerpt: as §1, with “[…] Cl/HCO3 exchange uptake was measured in BBMV by rapid filtration technique as previously described. […] Results were calculated as” for “For”, “HCO3 dependent DIDS sensitive Cl uptake.” for “diet-induced mice obesity model, LFD and HFD fed B6 mice were treated with this dose from the age of 20 weeks, and Sprague Dawley rats were treated from the age of 17 wks for 1 week. All the experimental animals were handled and euthanized according to Marshall University IACUC regulations.”

A further assay deals with SGLT1. The assay can be described thus: Na-glucose co-transport (SGLT1) uptake in villus cell BBMV of L-NAME-treated obese rats. It is filed as in vivo, rat. The note with it: obese rats (OZR) treated for at least one week with L-NAME; FIG. 21.
Excerpt: as §1, with “To inhibit constitutive nitric oxide production in both mice and rats, the animals were first treated with either a 10 or 25 mg/kg per day dosage of used N^G-nitro-L-arginine methyl ester (L-NAME).” left out, “For the diet-induced mice obesity model, LFD and HFD fed B6 mice were treated with this dose from the age of 20 weeks, and Sprague Dawley rats were treated from the age of 17 wks for 1 week. All the experimental animals were handled and euthanized according to Marshall University IACUC regulations.” left out
Uptake studies in intact villus cells and BBMVs. […] Filters with intact villus cells were dissolved in 5 ml scintillation fluid (Ecoscint, National Diagnostics), and radioactivity was determined in a Beckman 6500 Beta Scintillation Counter. […] The uptake experiment results were expressed as Na-glucose co-transport uptake in nanomoles per milligram protein at 60 sec for mice or 90 sec for rats. […]

As to `COC(=O)[C@@H](N)CCCNC(=N)N[N+](=O)[O-]` [L-NAME, N^G-nitro-L-arginine methyl ester], the “lowest dose to consistently affect transporter activities” value in the assay with transporter activities was found to be 10 mg. The “effect on NHE3 activity in obese rats” value with NHE3 was “did not affect NHE3; also recorded: does not affect NHE3 activity”. The “effect on the stimulation of Cl:HCO3 (NaCl absorption) in obese rats” value in assay [1] is “reversed the stimulation of Cl:HCO3”. Moreover, in the assay with SGLT1, the “effect on the stimulation of SGLT1 (glucose absorption) in obese rats” value was “reversed the stimulation of SGLT1”.
